Assay results from patent publication US10537580B2, “Azocane and azonane derivatives and methods of treating hepatitis B infections” (Novira Therapeutics, Inc., priority 2015, dated 2020).

Experiments:
[1] = system: HBV replication in HepG2-2.2.15 cells; assay: Inhibition of HBV replication dot-blot assay; type: cell-based; conditions: at 10 μM, six days, reduction in HBV DNA levels
Procedure: Compounds active in the HBV assembly assay are tested for their activity and toxicity in cellular assay. In the first anti-viral assay, the ability of compounds to inhibit HBV replication in an HBV-producing hepatoma cell line using the dot-blot method is evaluated.
Briefly, confluent monolayers of HepG2-2.2.15 cells are incubated with complete medium containing various concentrations of a test compound. Three days later, the culture medium is replaced with fresh medium containing the appropriately diluted test compound. Six days following the initial administration of the test compound, the cell culture supernatant is collected, and cell lysis is performed. The samples are applied onto Nylos membranes and DNA is immobilized to the membrane by UV cross-linking. After pre-hybridization, the HBV probe is added and the hybridization is performed overnight. The membranes are exposed to the Kodak films; antiviral activity is calculated from the reduction in HBV DNA levels (EC50). The EC50 for antiviral activity is calculated from the dose response curves of active compounds. Assay performance over time is monitored by the use of the standard positive control compounds ETV, BAY 41-4109, and HAP-1.
Selected compounds were tested for their activity and toxicity in cellular assay. In the first anti-viral assay, the ability of compounds to inhibit HBV replication in an HBV-producing hepatoma cell line using the dot-blot method was evaluated.
Confluent monolayers of HepG2-2.2.15 cells were incubated with complete medium containing various concentrations of a test compound. Three days later, the culture medium was replaced with fresh medium containing the appropriately diluted test compound. Six days following the initial administration of the test compound, the cell culture supernatant was collected, and cell lysis was performed. The samples were applied onto Nylos membranes and DNA was immobilized to the membrane by UV cross-linking. After pre-hybridization, the HBV probe was added and the hybridization was performed overnight. The membranes were exposed to the Kodak films; antiviral activity was calculated from the reduction in HBV DNA levels (EC50). The EC50 for antiviral activity was calculated from the dose response curves of active compounds. Assay performance over time was monitored by the use of the standard positive control compounds ETV, BAY 41-4109, and HAP-1.

[2] = target: mutant C150 HBV capsid protein (C150Bo) (Hepatitis B virus genotype D subtype adw, UniProt P03147, C107A/C48A/C61A/R150C); assay: HBV assembly assay (fluorescence quenching in vitro capsid assembly); type: biochemical; conditions: at about 10 μM; 50 mM Hepes pH 7.5, 150 mM NaCl, 1 hour at room temperature
Sequence of mutant C150 HBV capsid protein (C150Bo) (P03147 whole entry C107A/C48A/C61A/R150C, looked up): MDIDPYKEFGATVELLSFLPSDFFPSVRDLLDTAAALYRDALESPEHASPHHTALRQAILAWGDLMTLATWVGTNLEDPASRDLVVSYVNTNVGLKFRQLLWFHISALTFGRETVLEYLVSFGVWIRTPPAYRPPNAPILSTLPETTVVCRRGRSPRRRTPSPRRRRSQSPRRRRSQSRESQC

| SMILES | Activity in dot-blot-assay [1] | Activity (HBV assembly assay) [2] |
| --- | --- | --- |
| O=C(Nc1cc(F)c(F)c(F)c1)c1ccc(F)c(S(=O)(=O)N2CCOCC(O)CC2)c1 (stereo not shown) [Compound 2520] | + (‘+’ indicates >50% activity at 10 μM) | + (‘+’ indicates >50% activity at about 10 μM) |
| O=C(Nc1ccc(F)c(Cl)c1)c1ccc(F)c(S(=O)(=O)N2CCCCC(O)C(F)C2)c1 (stereo not shown) [Compound 2285_D1] | + (‘+’ indicates >50% activity at 10 μM) | + (‘+’ indicates >50% activity at about 10 μM) |
| O=C(Nc1ccc(F)c(Cl)c1)c1ccc(F)c(S(=O)(=O)N2CCOCCC(O)C2)c1 (stereo not shown) [Compound 2039] | + (‘+’ indicates >50% activity at 10 μM) | + (‘+’ indicates >50% activity at about 10 μM) |
| O=C(Nc1ccc(F)c(Cl)c1)c1ccc(F)c(S(=O)(=O)N2CCCCC(O)C(F)C2)c1 (stereo not shown) [Compound 2285_D2] | + (‘+’ indicates >50% activity at 10 μM) | + (‘+’ indicates >50% activity at about 10 μM) |
| O=C(Nc1cc(F)c(F)c(F)c1)c1ccc(F)c(S(=O)(=O)N2CCCCCCCC2)c1 [Compound 2435] | + (‘+’ indicates >50% activity at 10 μM) | + (‘+’ indicates >50% activity at about 10 μM) |
| O=C(Nc1ccc(F)c(Cl)c1)c1ccc(F)c(S(=O)(=O)N2CCCCCCCC2)c1 [Compound 2436] | + (‘+’ indicates >50% activity at 10 μM) | + (‘+’ indicates >50% activity at about 10 μM) |
| O=C(Nc1ccc(F)c(Cl)c1)c1ccc(F)c(S(=O)(=O)N2CCOCC(O)CC2)c1 (stereo not shown) [Compound 2040_E1] | + (‘+’ indicates >50% activity at 10 μM) | + (‘+’ indicates >50% activity at about 10 μM) |
| O=C(Nc1ccc(F)c(Cl)c1)c1ccc(F)c(S(=O)(=O)N2CCOCC(O)CC2)c1 (stereo not shown) [Compound 2040_E2] | + (‘+’ indicates >50% activity at 10 μM) | + (‘+’ indicates >50% activity at about 10 μM) |
